{"source": "paper PMC5607274", "about": "“An iterative compound screening contest method for identifying target protein inhibitors using the tyrosine-protein kinase Yes” (Scientific Reports, 2017)", "data": [{"molecular_target": "T1, human recombinant Yes [a.a. 2–543 (end)] (Homo sapiens, UniProt P07947)", "T1 construct": "human recombinant Yes [a.a; 2–543 (end)]; purchased BPS Bioscience 40488", "T1 sequence (P07947 2-543)": "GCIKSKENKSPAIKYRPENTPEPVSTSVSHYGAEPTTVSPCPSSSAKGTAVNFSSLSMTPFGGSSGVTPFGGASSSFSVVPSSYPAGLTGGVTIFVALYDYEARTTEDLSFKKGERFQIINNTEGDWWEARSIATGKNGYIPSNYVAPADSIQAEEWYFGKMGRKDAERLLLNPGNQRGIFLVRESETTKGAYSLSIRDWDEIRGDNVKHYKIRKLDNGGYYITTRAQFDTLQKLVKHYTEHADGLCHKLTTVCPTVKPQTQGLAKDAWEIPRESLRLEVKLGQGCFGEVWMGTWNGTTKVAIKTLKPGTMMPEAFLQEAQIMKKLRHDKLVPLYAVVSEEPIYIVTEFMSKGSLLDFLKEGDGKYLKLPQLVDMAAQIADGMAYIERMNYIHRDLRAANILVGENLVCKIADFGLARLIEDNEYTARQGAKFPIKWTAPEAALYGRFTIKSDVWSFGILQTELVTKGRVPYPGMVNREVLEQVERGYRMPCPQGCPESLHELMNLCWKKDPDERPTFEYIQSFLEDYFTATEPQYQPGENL", "assay": "ADP-Glo kinase assay, inhibition rates of Yes phosphorylation activity (first and second screening)", "type": "biochemical", "settings": "first screening; mean of n = 4 wells; 10 μmol L−1 compound", "summary_of_the_method": "(§1)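 ADP-Glo luminescence measured inhibition of human recombinant Yes (a.a. 2–543) phosphorylation activity. In the first screen, each compound ran in 4 wells and inhibition rates were averaged. The second screen retested hits as compounds dissolved from fresh powder.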", "units": {"First screening IR (inhibition rate)": "%"}, "values": [{"smiles": "Cn1ncc2c(N(Cc3ccccc3F)C3CC3)ncnc21", "note": "[Compound Z328694806]", "First screening IR (inhibition rate)": -21}, {"smiles": "CC(c1ccc(F)c(F)c1)N(C)c1ncnc2c1cnn2C", "note": "(stereo not drawn) [Compound Z328694928]", "First screening IR (inhibition rate)": -1}, {"smiles": "COC(=O)c1cc(-c2ccc(OC)cc2)nc2c1c(C)nn2CCC#N", "note": "[Compound Z328815354]", "First screening IR (inhibition rate)": 24}, {"smiles": "CCc1c(C(=O)Nc2n[nH]c(-c3ccc(C)cc3)n2)cnn1-c1ccccc1", "note": "[Compound Z332932578]", "First screening IR (inhibition rate)": 1}, {"smiles": "COc1ccc(-c2nc(NC(=O)c3ccc(NC(=O)c4ccccc4)cc3)n[nH]2)cc1", "note": "[Compound Z332936670]", "First screening IR (inhibition rate)": 14}, {"smiles": "O=C(NCc1cn2ccsc2n1)C1CC1c1ccccc1C(F)(F)F", "note": "(stereo not drawn) [Compound Z333170264]", "First screening IR (inhibition rate)": -2}, {"smiles": "COc1ccc(/C(O)=C2\\C(=O)C(=O)N(CCCn3ccnc3)C2c2cccnc2)cc1OC", "note": "(stereo not drawn) [Compound Z335452550]", "First screening IR (inhibition rate)": -9}, {"smiles": "CC(NC(c1ccccc1)c1ccccn1)c1ccncc1", "note": "(stereo not drawn) [Compound Z335491150]", "First screening IR (inhibition rate)": 3}, {"smiles": "O=C(CSc1ccc(S(=O)(=O)N2CCCC2)cn1)c1ccc2c(c1)OCO2", "note": "[Compound Z335869204]", "First screening IR (inhibition rate)": 12}, {"smiles": "O=c1cc(-c2ccccc2)c2cc(Cl)c(OCCO)cc2o1", "note": "[Compound Z335913836]", "First screening IR (inhibition rate)": 15}, {"smiles": "CC(C)(C)c1nc(SCC(=O)c2ccc3c(c2)CCC3)n[nH]1", "note": "[Compound Z335958518]", "First screening IR (inhibition rate)": -7}, {"smiles": "Cn1nccc1/C=C1\\C(=O)Nc2ccccc21", "note": "[Compound Z336032014]", "First screening IR (inhibition rate)": 2}, {"smiles": "CC(C)n1ncc2cc(/C=C3/CN(C)Cc4c3nc3ccccc3c4C(=O)O)c(Cl)nc21", "note": "[Compound Z336032562]", "First screening IR (inhibition rate)": 54}, {"smiles": "CCCn1c(=O)[nH]c(=O)c2c(C(=O)Nc3ccccc3N3CCOCC3)cc(C3CC3)nc21", "note": "[Compound Z337770612]", "First screening IR (inhibition rate)": -5}, {"smiles": "CC(C)Cn1c(=O)[nH]c(=O)c2c(C(=O)NCc3ccc(CN4CCOCC4)cc3)cc(C3CC3)nc21", "note": "[Compound Z338592020]", "First screening IR (inhibition rate)": 6}, {"smiles": "O=c1c([N+](=O)[O-])c(NCCCn2ccnc2)c2ccccc2n1-c1ccccc1", "note": "[Compound Z339024634]", "First screening IR (inhibition rate)": -22}, {"smiles": "O=C(Nn1cnc2ccccc21)c1cnn(-c2ccccc2F)c1-n1cccc1", "note": "[Compound Z339292340]", "First screening IR (inhibition rate)": 11}, {"smiles": "O=C(Nc1ccc2ccccc2n1)c1ccc(OCc2cccnc2)cc1", "note": "[Compound Z339583070]", "First screening IR (inhibition rate)": -12}, {"smiles": "N#Cc1ccccc1CSCCNC(=O)N1CCN(c2ncc(C(F)(F)F)cc2Cl)CC1", "note": "[Compound Z352490104]", "First screening IR (inhibition rate)": -2}, {"smiles": "CN(CCCC(=O)O)S(=O)(=O)c1cc(S(C)(=O)=O)ccc1Cl", "note": "[Compound Z353969056]", "First screening IR (inhibition rate)": 44}, {"smiles": "CS(=O)(=O)c1ccc(Cl)c(S(N)(=O)=O)c1", "note": "[Compound Z353972988]", "First screening IR (inhibition rate)": 2}, {"smiles": "CCC1CCCCN1S(=O)(=O)c1cc(S(C)(=O)=O)ccc1Cl", "note": "(stereo not drawn) [Compound Z355127288]", "First screening IR (inhibition rate)": 7}, {"smiles": "CC1CC(C)CN(S(=O)(=O)c2cc(S(C)(=O)=O)ccc2Cl)C1", "note": "(stereo not drawn) [Compound Z355129038]", "First screening IR (inhibition rate)": 12}, {"smiles": "Cc1ccc(-c2cc(C(=O)OCc3nc(C(C)(C)C)no3)n[nH]2)s1", "note": "[Compound Z355654248]", "First screening IR (inhibition rate)": 12}, {"smiles": "Cc1nc2c(cc1C(=O)NCCNc1ccccc1[N+](=O)[O-])c(C)nn2C", "note": "[Compound Z355820588]", "First screening IR (inhibition rate)": -9}, {"smiles": "Cc1cc(NC(=O)C(C)SCC(=O)Nc2ccc(SC3CCCC3)cc2)no1", "note": "(stereo not drawn) [Compound Z357095098]", "First screening IR (inhibition rate)": -13}, {"smiles": "CN(C1CCCCC1)S(=O)(=O)N1CCN(c2cn[nH]c(=O)c2Cl)CC1", "note": "[Compound Z357945110]", "First screening IR (inhibition rate)": -10}, {"smiles": "C=CCn1c(-c2ccc(Cl)cc2)nn(CN2CCN(C(=O)c3ccccc3F)CC2)c1=S", "note": "[Compound Z358275910]", "First screening IR (inhibition rate)": 5}, {"smiles": "CN1CCCN(c2nc(C(F)(F)F)nc3c2cnn3Cc2ccccc2)CC1", "note": "[Compound Z359311942]", "First screening IR (inhibition rate)": -23}, {"smiles": "CCN(CC)C(=O)CN1CCCN(c2ncnc3c2cnn3C)CC1", "note": "[Compound Z359324360]", "First screening IR (inhibition rate)": -4}, {"smiles": "O=C(Nc1cccc(Cn2ccnc2)c1)c1cc2c(s1)-c1ccccc1OC2", "note": "[Compound Z362662212]", "First screening IR (inhibition rate)": 6}, {"smiles": "O=C(COc1ccc(Br)cc1)Nc1cccc(Cn2ccnc2)c1", "note": "[Compound Z362662788]", "First screening IR (inhibition rate)": 8}, {"smiles": "Cc1ccc(-n2ncc(C(=O)Nc3ccccc3F)c2C2CC2)cc1Cl", "note": "[Compound Z363094390]", "First screening IR (inhibition rate)": -5}, {"smiles": "O=C(NCc1ccc(-n2ccnc2)nc1)c1ccc(-c2ccccc2)cc1", "note": "[Compound Z363639532]", "First screening IR (inhibition rate)": 3}, {"smiles": "O=C(/C=C/c1ccc(Br)o1)Nc1ccc(S(=O)(=O)C2CCCC2)cc1", "note": "[Compound Z364474850]", "First screening IR (inhibition rate)": 0}, {"smiles": "Cc1cc(C(=O)Nc2ccc3c(c2)CCC3)ccc1-n1cnnn1", "note": "[Compound Z365246124]", "First screening IR (inhibition rate)": 9}, {"smiles": "O=C(c1ccc(=O)[nH]c1)N1CCN(C(=O)c2cc3ccccc3o2)CC1", "note": "[Compound Z368093014]", "First screening IR (inhibition rate)": 48}, {"smiles": "NC(=O)c1cc(NC(=O)c2cc(-c3ccccc3Cl)n[nH]2)ccc1F", "note": "[Compound Z368298320]", "First screening IR (inhibition rate)": -18}, {"smiles": "CCC(CC)N(C)S(=O)(=O)c1ccc(S(N)(=O)=O)cc1", "note": "[Compound Z369246436]", "First screening IR (inhibition rate)": -4}, {"smiles": "O=C(NCc1ccccc1)Nc1ccc2oc(C3CC3)nc2c1", "note": "[Compound Z369933958]", "First screening IR (inhibition rate)": 11}, {"smiles": "CC(=O)N1CCN(c2nc(C(F)(F)F)nc3ccsc23)CC1", "note": "[Compound Z370715150]", "First screening IR (inhibition rate)": 6}, {"smiles": "O=C1CN(c2nc(C(F)(F)F)nc3ccsc23)CCN1", "note": "[Compound Z370715174]", "First screening IR (inhibition rate)": 26}, {"smiles": "O=C(Nc1cccc2ncccc12)c1ccc(=O)n(-c2ccc(F)cc2)n1", "note": "[Compound Z370787214]", "First screening IR (inhibition rate)": 43}, {"smiles": "O=C(c1ccoc1)N1CCN(c2ncnc3cc(-c4ccc(F)cc4)sc23)CC1", "note": "[Compound Z373317194]", "First screening IR (inhibition rate)": 48}, {"smiles": "N#Cc1ccc(NC(=O)c2ccn(-c3ccc(F)cc3)n2)cc1", "note": "[Compound Z381174904]", "First screening IR (inhibition rate)": 44}, {"smiles": "Cc1nnc(NC(=O)C2CC(c3cccc(F)c3)=NO2)s1", "note": "(stereo not drawn) [Compound Z381180216]", "First screening IR (inhibition rate)": -5}, {"smiles": "Cc1ccc(-c2nc(N)sc2C)s1", "note": "[Compound Z381381388]", "First screening IR (inhibition rate)": -1}, {"smiles": "COc1ccccc1C(=O)N=Nc1c(O)[nH]c2ccc(C)cc12", "note": "[Compound Z381428874]", "First screening IR (inhibition rate)": 15}, {"smiles": "Cc1sc2nc(CN3CCC(C)CC3)nc(N3CCN(C(=O)c4ccccc4O)CC3)c2c1C", "note": "[Compound Z381659312]", "First screening IR (inhibition rate)": -12}, {"smiles": "NC(=O)Nc1ccc(NC(=O)Cc2csc(Cc3ccccc3)n2)cc1", "note": "[Compound Z383135670]", "First screening IR (inhibition rate)": -14}, {"smiles": "O=C(Cc1csc(Cc2ccccc2)n1)Nc1cccc(Cn2ccnc2)c1", "note": "[Compound Z383523130]", "First screening IR (inhibition rate)": 46}, {"smiles": "O=C(Nc1cccc(COc2cccc(F)c2)c1)c1ccc(=O)[nH]n1", "note": "[Compound Z383786992]", "First screening IR (inhibition rate)": -2}, {"smiles": "CC(CCN1CCN(c2ccccc2)CC1)NC(=O)c1cc(-c2ccco2)nc2c1cnn2C(C)C", "note": "(stereo not drawn) [Compound Z385234634]", "First screening IR (inhibition rate)": 62}, {"smiles": "Cc1ccc(S(C)(=O)=O)cc1S(N)(=O)=O", "note": "[Compound Z385450636]", "First screening IR (inhibition rate)": 26}, {"smiles": "CC(=O)Nc1ccc(SCc2noc(-c3cccc(C)c3)n2)cc1", "note": "[Compound Z388276110]", "First screening IR (inhibition rate)": 12}, {"smiles": "Cc1nc2cc(NC(=O)c3cc(C)n(-c4cccnc4)c3C)ccc2o1", "note": "[Compound Z395169542]", "First screening IR (inhibition rate)": 6}, {"smiles": "Cc1noc2ncc(C(=O)NCc3cccc(Cn4ccnc4)c3)cc12", "note": "[Compound Z395825976]", "First screening IR (inhibition rate)": -16}, {"smiles": "COc1cc(CNC(=O)C2CCCN2C(C)=O)ccc1OCc1cccnc1", "note": "(stereo not drawn) [Compound Z396609184]", "First screening IR (inhibition rate)": 7}, {"smiles": "FC(F)(F)c1ccnc(Nc2cn[nH]c2)n1", "note": "[Compound Z397745198]", "First screening IR (inhibition rate)": 2}, {"smiles": "Cc1cn2nc(NCc3ccc(N4CCNC(=O)C4)cc3)sc2n1", "note": "[Compound Z397897560]", "First screening IR (inhibition rate)": 39}, {"smiles": "O=C(c1ccoc1)N1CCC(NCc2cn[nH]c2-c2ccc(F)cc2)CC1", "note": "[Compound Z401874244]", "First screening IR (inhibition rate)": 36}, {"smiles": "O=C(CS(=O)(=O)CCCc1ccccc1)Nc1ccc(-n2ccnc2)nc1", "note": "[Compound Z407006622]", "First screening IR (inhibition rate)": -20}, {"smiles": "c1ccc(-n2ncc3c2CCNC3)cc1", "note": "[Compound Z409420032]", "First screening IR (inhibition rate)": -11}, {"smiles": "CC(CCc1ccc(O)cc1)NC(=O)Nc1ccc(NC(=O)c2ccco2)cc1", "note": "(stereo not drawn) [Compound Z412774176]", "First screening IR (inhibition rate)": -12}]}, {"molecular_target": "T1, human recombinant Yes [a.a. 2–543 (end)]", "assay": "ADP-Glo kinase assay, inhibition rates of Yes phosphorylation activity (first and second screening)", "type": "biochemical", "settings": "second screening, dissolved from fresh powder; n = 4; 10 μmol L−1 compound", "summary_of_the_method": "as §1", "units": {"Second screening IR (inhibition rate)": "%"}, "values": [{"smiles": "CC(C)n1ncc2cc(/C=C3/CN(C)Cc4c3nc3ccccc3c4C(=O)O)c(Cl)nc21", "note": "[Compound Z336032562]", "Second screening IR (inhibition rate)": -2}, {"smiles": "CC(CCN1CCN(c2ccccc2)CC1)NC(=O)c1cc(-c2ccco2)nc2c1cnn2C(C)C", "note": "(stereo not drawn) [Compound Z385234634]", "Second screening IR (inhibition rate)": 1}]}]}
